Reference: US20090192204A1, “N-(2-THIAZOLYL)-AMIDE DERIVATIVES AS GSK-3 INHIBITORS” (NOSCIRA, S.A., priority 2006, published 2009)

Experiments:
[1] = biological target: T1, Recombinant human glycogen synthase kinase 3β (Homo sapiens, UniProt P49841); assay: GSK-3β inhibition (radiometric kinase assay, GS-2 peptide, 33P-ATP); assay type: biochemical; conditions: 0.5 h, remaining GSK-3 activity; for remaining activity at 25 µM: compound 25 μM; for remaining activity at 50 µM: compound 50 μM
T1 construct: purchased Upstate 14-306
Method: This assay is based on the protocol detailed by Upstate Cat. 14-306, making some slight modifications.
Recombinant human glycogen synthase kinase 3β is assayed in MOPS 11 mM pH7.4, EDTA 0.2 mM, EGTA 1.25 mM, MgCl2 26.25 mM and sodium orthovanadate 0.25 mM in the presence of 62.5 μM of Phospho-Glycogen Synthase Peptide-2 (GS-2) (TOCRIS, Cat. 1352), 0.5 μCi γ-^33P-ATP and unlabelled ATP (Sigma, A-9187) at a final concentration of 12.5 μM. After incubation for 30 minutes at 30° C., aliquots are spotted onto P81 phosphocellulose papers. Filters are washed four times for at least 10 minutes each with 1% phosphoric acid and counted with scintillation cocktail in a scintillation counter (PerkinElmer, Microbeta 1450). The activity of GSK-3 is tested at concentrations of 25 and 50 μM, in the presence of the compounds synthesized according to examples 1 to 7 and in the presence of another 6 compounds of formula (I).The results obtained are indicated in Table I (see below), in the form of percentage of GSK-3 activity.

[2] = test system: phosphorylated human Tau [pS396]; assay: Inhibition of tau phosphorylation in SHSY5Y cells (Tau [pS396] sandwich ELISA); assay type: cell-based; set-up: key: “NEG” means no tau phosphorylation inhibition was detected at the referred concentration of compound (I); “POS” means that at the referred concentration tau phosphorylation inhibition was detected; conditions: 18 h
Method: Human neuroblastoma SHSY5Y cells were seeded in the presence of Minimum Essential Medium/Nutrient Mixture F-12. One day later, cells are treated with samples for 18 h at 37° C. After treatment, cultures are washed with phosphate-buffered saline and lysed for 30 min at 4° C. in extraction buffer (10 mM Tris-HCl, pH 7.4, 100 mM NaCl, 1 mM EDTA, 2 mM Na3VO4, 1% Triton X-100, 10% glycerol, 0.1% SDS, 0.5% Sodium deoxycholate, 1 mM PMSF and a protease inhibitor cocktail (Roche, Cat 1 697 498)).
The quantitative determination of phosphorylated human Tau is made taking aliquots of the cell lysate and using a phosphorylation-specific antibody against Tau [pS396] in a sandwich ELISA (Biosource, Cat KHB7031). Tau phosphorylation is estimated by measuring the absorbance at 450 nm in a microtiter plate reader (Cultek, Anthos 2010).
The effect of the synthesized compounds according to examples 1-7 and that of another 6 compounds of formula (I) is determined at different final concentrations, namely 50, 100 and 200 μM. Not all the compounds of formula (I) were tested at all the concentrations. The results are indicated in Table 1 (see below) as “NEG” and “POS”, respectively meaning “negative” and “positive”; “NEG” means no tau phosphorylation inhibition was detected at the referred concentration of compound (I); “POS” means that at the referred concentration tau phosphorylation inhibition was detected.

SH-SY5Y cells = assay: Cell survival by LDH release in SH-SY5Y cells; assay type: cell-based
Method: In addition to tau phosphorylation assays, quantification of cell death due to potential toxicity of compounds 1, 4, 5, 7, 8, 9, 10 and 11 described above is made by measuring LDH release (Roche, Cat 1 644 793). For the quantitative determination of cell survival, aliquots of the cell lysate are incubated with an equal volume of reaction mixture at room temperature for 20-30 min. The measure of absorbance is made in a microtiter plate reader with 490-492 nm filter (Cultek, Anthos 2010).
For compounds 4 and 5, the cell survival was measured at 24 hours treatment (see Table 2), and for compounds 1, 7, 8, 9, 10 and 11 was measured at 18 hours treatment (see Table 3), in SH-SY5Y cells. It is generally considered that a compound is considered toxic if less than 80% of the cells survive after treatment with a compound.

T1 sequence (P49841 whole entry): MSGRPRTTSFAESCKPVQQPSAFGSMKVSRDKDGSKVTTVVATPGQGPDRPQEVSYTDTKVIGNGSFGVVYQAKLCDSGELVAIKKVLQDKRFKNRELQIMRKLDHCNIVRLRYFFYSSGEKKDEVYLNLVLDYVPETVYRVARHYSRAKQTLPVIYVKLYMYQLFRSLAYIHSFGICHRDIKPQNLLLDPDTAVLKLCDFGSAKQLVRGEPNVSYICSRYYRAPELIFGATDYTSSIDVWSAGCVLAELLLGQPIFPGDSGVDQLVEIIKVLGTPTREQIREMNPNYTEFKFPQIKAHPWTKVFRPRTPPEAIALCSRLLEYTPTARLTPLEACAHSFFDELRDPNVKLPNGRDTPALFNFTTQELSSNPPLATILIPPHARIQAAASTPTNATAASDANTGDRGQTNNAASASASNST

Compound | remaining activity at 25 µM [1] | remaining activity at 50 µM [1] | Tau phosphorylation inhibition in cells ([2]; 50 μM) | Tau phosphorylation inhibition in cells ([2]; 100 μM) | Tau phosphorylation inhibition in cells ([2]; 200 μM) | % of cell viability (SH-SY5Y cells; 50 μM, 18 hours treatment) | % of cell viability (SH-SY5Y cells; 100 μM, 18 hours treatment) | % of cell viability (SH-SY5Y cells; 10 μM, 24 hours treatment) | % of cell viability (SH-SY5Y cells; 25 μM, 24 hours treatment)
O=C(Nc1ncc([N+](=O)[O-])s1)c1c[nH]c2ccccc12 [Compound 3] | 73.8% | 53.4% |  |  |  |  |  |  | 
O=C(CCCc1c[nH]c2ccccc12)Nc1ncc([N+](=O)[O-])s1 [Compound 1] | 37.4% | 18.9% | NEG | NEG | NEG | 103.2 ± 17% | 101.0 ± 17% |  | 
O=C(Nc1ncc([N+](=O)[O-])s1)c1n[nH]c2ccccc12 [Compound 11, 1H-Indazole-3-carboxylic Acid (5-nitro-thiazol-2-yl)-amide] | 34.8% | 18.2% | NEG | NEG |  | 95.3 ± 3.3% | 93.9 ± 5.6% |  | 
COc1ccc2[nH]cc(CC(=O)Nc3ncc([N+](=O)[O-])s3)c2c1 [Compound 7, 2-(5-Methoxy-indol-3-yl)-N-(5-nitro-thiazol-2-yl)-acetamide] | 43.9% | 32.2% | NEG | POS |  | 99.8 ± 8.6% | 92.9 ± 11.1% |  | 
Cc1[nH]c2ccccc2c1CC(=O)Nc1ncc([N+](=O)[O-])s1 [Compound 9, 2-(2-Methyl-indol-3-yl)-N-(5-nitro-thiazol-2-yl)-acetamide] | 7.96% | 2.61% | POS | POS |  | 91.6 ± 5.9% | 90.8 ± 5.5% |  | 
Cn1cc(CC(=O)Nc2ncc([N+](=O)[O-])s2)c2ccccc21 [Compound 8, 2-(1-Methyl-indol-3-yl)-N-(5-nitro-thiazol-2-yl)-acetamide] | 17.8% | 9.27% | POS | POS |  | 103 ± 7.7% | 85.5 ± 6.5% |  | 
COc1ccc2[nH]c(C(=O)Nc3ncc([N+](=O)[O-])s3)cc2c1 [Compound 10, 5-Methoxy-indole-2-carboxylic Acid (5-nitro-thiazol-2-yl)-amide] | 18.9% | 11% | POS | POS |  | 84.7 ± 2.7% | 90.6 ± 7.2% |  | 
O=C(CCc1c[nH]c2ccccc12)Nc1ncc([N+](=O)[O-])s1 [Compound 5] | 19.1% | 12.4% | POS | POS | POS |  |  | 87.8 ± 3.8% | 86.1 ± 18.4%
O=C(Cc1c[nH]c2ccccc12)Nc1nccs1 [Compound 13] | 70.9% | 42.7% |  |  |  |  |  |  | 
O=C(Cc1c[nH]c2ccccc12)Nc1ncc([N+](=O)[O-])s1 [Compound 4, 2-(Indol-3-yl)-N-(5-nitro-thiazol-2-yl)-acetamide] | 6.29% | 8.51% | NEG | POS | POS |  |  | 91.7 ± 1.9% | 90 ± 3.7%
O=C(Cc1c[nH]c2ccccc12)Nc1ncc(Cl)s1 [Compound 6] | 29.4% | 14.6% |  |  |  |  |  |  | 
Cc1cnc(NC(=O)Cc2c[nH]c3ccccc23)s1 [Compound 12] | 49.1% | 37.1% |  |  |  |  |  |  | 
O=C(CCCc1c[nH]c2ccccc12)Nc1nccs1 [Compound 2] | 59.6% | 39% |  |  |  |  |  |  | 
